Experimental data from publication PMC5527305, “Prevention of Ophthalmia Neonatorum Caused by Neisseria gonorrhoeae Using a Fatty Acid-Based Formulation” (mBio, 2017).
Converted amounts (≈) assume the structure as drawn. “Also recorded” adds a separate entry of the source. Like-named read-outs stand apart in the source and are kept apart here.

Columns and labels:
[1] = tested on: N. gonorrhoeae strain NCCP11945; experiment: Growth inhibition screen on GC solid media containing 1 mM candidate; type: cell-based, Neisseria gonorrhoeae; settings: 1 mM candidate in GC agar media; Yes = strain NCCP11945 did not grow
Description: (§1) To find potential candidates, 37 organic acids, esters, and salts were tested in a two-tiered screening process. These candidates were chosen based on the carbon chain lengths of the fatty acids, the presence or absence of saturation, and modifications to represent a diverse selection of organic acid candidates. The first screen aimed to determine the ability of each compound to inhibit the growth of N. gonorrhoeae strain NCCP11945 at 1 mM in GC solid media (Table 1). This strain was chosen due to its relatively recent isolation, its antibiotic resistance profile, and the availability of a complete genome sequence. Those candidates able to inhibit the growth of N. gonorrhoeae strain NCCP11945 were investigated in a second assay. The second assay tested the ability of each compound to cause at least a 4-log reduction in viable bacteria at 1 mM with a 2-min exposure time (Table 1).
(§2) The well-characterized N. gonorrhoeae NCCP11945 strain ([36]) was used in the screening stage. Eight isolates obtained from Public Health England, representing circulating isolates from various European locations, were used in the log reduction assays. All isolates were cultured for 24 h prior to testing by plating on GC solid medium (Oxoid Limited, Hampshire, United Kingdom) with Kellogg supplements and incubation at 37°C and 5% CO2 ([37]).

[2] = tested on: N. gonorrhoeae strain NCCP11945; experiment: Log reduction assay in GC broth, 2-min exposure; type: cell-based, Neisseria gonorrhoeae; settings: for log reduction at 1000 µM: Neisseria gonorrhoeae, NCCP11945, 2 min, 1 mM, read-out: Log reduction at 1 mM (calculated log reduction in viable bacteria); for log reduction at 1000 µM / Log reduction at 1 mM (calculated log reduction in viable bacteria): maximum score 6 = all cells killed
Description: as §1
(§3) Log reductions were done as described by Bergsson and coworkers ([18]). Briefly, cells were suspended in GC broth (18 g/liter GC base [Oxoid, Limited] with added defined supplements) to an optical density at 520 nm of 0.3, which is approximately equivalent to 10^7 to 10^8 cells per ml ([38]). […] The contents of the tubes were then mixed at room temperature for 2 min and immediately diluted in a 10-fold dilution series to 10^−4. The dilutions were plated by spreading 10 µl on a quarter of a plate; a 100-µl neat solution was also plated. Plates were then incubated at 37°C for 48 h, with all samples plated in duplicate. […] Additional testing at lower concentrations was also done on the eight clinical isolates of European origin.

[3] = tested on: nine gonococcal isolates (strain NCCP11945 and eight isolates from Public Health England); experiment: Minimum bactericidal concentration by log reduction against nine gonococcal isolates; type: cell-based, Neisseria gonorrhoeae; settings: for Killing of all gonococcal cells for all isolates: 1 mM; for MBC: lowest concentration giving mean log reduction above 4 from a 2-min exposure
From the text: The seven candidates were further tested against nine gonococcal isolates, including strain NCCP11945 and eight isolates from Public Health England, to find their minimal bactericidal concentration (MBC). This was defined as the lowest concentration tested to give an average 4-log10 reduction in bacterial count after a 2-min exposure. […] Any candidate that killed all gonococcal cells in the cell suspension was given a log reduction score of six.
as §2, §3

bovine RBCs = experiment: Red blood cell (RBC) lysis assay; type: cell-based
Description: Whole bovine blood was obtained from a local slaughter house (ABP), adding 90 ml blood to 10 ml 110 mM trisodium citrate anticoagulant. RBCs were isolated the same day. The RBCs were washed by three repeats of centrifugation (1,500 × g for 10 min) and resuspension in phosphate-buffered saline (PBS) with 10 mM glucose (PBSG). Testing was done following the guidelines of the European Union Reference Laboratory for alternatives to animal testing (EURL-ECVAM) ([22]). The organic acids were solubilized in dimethyl sulfoxide (DMSO) and diluted to a maximum DMSO concentration of 10%. In a 2-ml centrifuge tube, 750 µl of the sample was added to 250 µl RBCs. Controls used in the assay were a complete lysis control (deionized water) and a fragility control (PBSG–10% DMSO). Samples were shaken at room temperature for 1 h and then centrifuged at 14,000 × g for 2 min. An aliquot of 750 µl of the supernatant was taken and its absorbance at 451 nm measured.

[4] = tested on: gonococcal cells (isolate NCCP 11945); experiment: Log reduction in artificial tear fluid with or without calcium chloride; type: cell-based, Neisseria gonorrhoeae; settings: for Reduction in bacterial cell number in artificial tear fluid containing calcium chloride / Antigonococcal properties in tear fluid made without calcium chloride: 1 mM candidate, 2 min; for Reduction in bacterial cell number in artificial tear fluid containing calcium chloride: with calcium; for Effect of calcium in artificial tear fluid on antimicrobial effect: calcium 1 mM, Fig. 2
Description: The antigonococcal properties of the seven selected fatty acids were tested in artificial tear fluid, which contained calcium chloride. The addition of 1 mM lauric acid, tridecanoic acid, or sodium dodecanoate gave no reduction in bacterial cell number after exposure, in contrast to the results seen when they were tested in culture medium (Fig. 2). […] This was most likely due to the negative effect of calcium on the aqueous solubility of these candidates.
Artificial tear fluid was made as described by Mirejovsky and others ([39]) with or without calcium chloride. […] As with the previous log reductions, 10^7 gonococcal cells (isolate NCCP 11945) were suspended in GC broth. The cell suspension was centrifuged to remove the culture medium, and the bacteria were resuspended in the tear fluid. This was then added to the concentrated organic acid candidates. The cells were then enumerated again after 2 min of exposure to estimate any reduction in cell number due to the exposure to the organic acid.

bovine cornea = experiment: Bovine corneal opacity and permeability (BCOP) test
Description: Bovine eyes were collected from a local slaughter house (ABP, Guildford, Surrey, United Kingdom) and were transported in cold saline solution for testing at the laboratory. Each eye was first visually examined for signs of damage before use. The test was conducted as detailed by Abdelkader and coworkers ([21]). The exposure time of the test substances was 30 s. The selected bactericidal compounds were tested at 1 mM in saline solution, with a corresponding vehicle control (1% ethanol–saline solution) also performed. […] The test area of the cornea was then washed with 10 ml saline solution. Corneal damage to the test area was assessed by fluorescein staining and examination under a cobalt blue filter. Pathological scoring based on opacity, epithelial integrity, and epithelial detachment was done in accordance with previous publications ([19]). Each of the seven lead candidates was tested in triplicate, and each test was performed on a separate day using a different batch of eyeballs. Corneal histology was done as outlined by Abdelkader and coworkers ([21]) by evaluating the damage to the epithelial layer and stroma of the cornea after hematoxylin and eosin staining.

[5] = Neisseria gonorrhoeae, 2 min, read-out: MBC

Compound	Growth inhibition [1]	Log reduction at 1 mM: at least a 4-log reduction in viable bacteria (Yes/No) [2]	log reduction at 1000 µM [2]	also measured
O=C(O)CCCCCC(=O)O [Pimelic acid]	No			
CCCCCCCC/C=C\CCCCCCCC(=O)O [Oleic acid]	Yes	No	1	
O=C(O)CCCCCCC(=O)O [Suberic acid]	No			
CCCCCCCCCC(=O)O [Capric acid/decanoic acid]	No			
CCCCC/C=C\C/C=C\CCCCCCCC(=O)O [Linoleic acid]	Yes	No	1.6	
CCCCCCCCCCCCCCCC(=O)O [Palmitic acid]	No			
CCCCC/C=C\C/C=C\C/C=C\C/C=C\CCCC(=O)O [Arachidonic acid]	Yes			
CCCCCCCC(=O)OCC(O)CO (racemic) [1-octanoyl-rac-glycerol]	Yes	No	0	
O=C(O)CCCCCCCCC(=O)O [Sebacic acid]	No			
CCCCCCCC/C=C/CCCCCCCC(=O)O [Elaidic acid]	Yes	No	0.5	
CCCCCCCCCCCCCCCC(=O)OC(C)C [Isopropyl palmitate]	No			
CCCCCCCCCCCCCCC(=O)O [Pentadecylic acid]	Yes	No		Log reduction at 1 mM (calculated log reduction in viable bacteria) [2]: 0.5 log10
CCCCCCCCCCCCCC(=O)OC(C)C [Isopropyl myristate]	No			
CCCCCCCC/C=C\CCCCCCCCCCCC(=O)O [Erucic acid]	Yes	No	0	
O=C(O)CCCCC(=O)O [Adipic acid]	No			
CCCCCCCC(=O)O [Caprylic/octanoic acid]	No			
CCCCCCCCCCCCCC(=O)[O-].[Na+] [Sodium myristate]	Yes	No		Log reduction at 1 mM (calculated log reduction in viable bacteria) [2]: 0.5 log10
CCCCCC/C=C\CCCCCCCC(=O)O [Palmitoleic acid]	Yes	Yes	> 6	Killing of all gonococcal cells for all isolates ([3]; 2 min): did not; MBC [3, 5]: 500 µM (≈ 127 µg/mL); H50 concentration relative to MBC (bovine RBCs; H50 = concentration to lyse 50% of RBCs, MBC from Table 1): lower than their minimum bactericidal concentration
CCCCCCCCCCCCCCCCCC(=O)O [Stearic acid]	No			
CCCCCCCCCCCCCC(=O)OCC(O)CO (stereo not drawn) [Monomyristin]	Yes	No		Log reduction at 1 mM (calculated log reduction in viable bacteria) [2]: 0.6 log10
CCCCCCCCCCCCC(=O)O [Tridecanoic acid]	Yes	Yes	> 6	Killing of all gonococcal cells for all isolates ([3]; 2 min): did not; MBC [3, 5]: 750 µM (≈ 161 µg/mL); Reduction in bacterial cell number in artificial tear fluid containing calcium chloride [4]: no reduction; Antigonococcal properties in tear fluid made without calcium chloride [4]: completely restored; Effect of calcium in artificial tear fluid on antimicrobial effect [4]: inactivated; H50 concentration relative to MBC (bovine RBCs): greater than their MBCs; RBC lysis (hemolysis) (bovine RBCs; 1 h incubation, bovine RBCs): did not lyse RBCs at any concentration investigated; also recorded: did not cause any hemolysis
CCCCCCCCCCCC(=O)[O-].[Na+] [Sodium dodecanoate]	Yes	Yes		Log reduction at 1 mM (calculated log reduction in viable bacteria) [2]: > 6 log10; Killing of all gonococcal cells for all isolates ([3]; 2 min): killed all gonococcal cells for all isolates; MBC [3]: 750 µM; Reduction in bacterial cell number in artificial tear fluid containing calcium chloride [4]: no reduction; Antigonococcal properties in tear fluid made without calcium chloride [4]: completely restored; Effect of calcium in artificial tear fluid on antimicrobial effect [4]: inactivated; Mean cumulative BCOP score (bovine cornea; 1 mM in saline solution, 30 s exposure, triplicate): lower than 0.5; Fluorescein staining of cornea (bovine cornea; 1 mM, around rubber application ring): any sign of fluorescein staining; BCOP irritancy classification (bovine cornea; candidates 1 mM in saline, controls 0.5 M NaOH, 100% acetone, 30 s exposure): nonirritants
CCCCCC[C@@H](O)C/C=C\CCCCCCCC(=O)O [Ricinoleic acid]	Yes	No		Log reduction at 1 mM (calculated log reduction in viable bacteria) [2]: 3.5 log10
CCCCCCCCCCCCCC(=O)O [Myristic acid]	Yes	No	1.5	
C/C=C/C=C/C(=O)O [Sorbic acid]	No			
CCCCCCCCCCC(=O)O [Undecanoic acid]	Yes	No	0.2	
CCCCCCCCCCCCCCCCC(=O)O [Heptadecylic acid]	No			
O=C(O)CCC(=O)O [Succinic acid]	No			
CCCCCCCCCCCC(=O)O [Lauric acid]	Yes	Yes		Log reduction at 1 mM (calculated log reduction in viable bacteria) [2]: > 6 log10; Killing of all gonococcal cells for all isolates ([3]; 2 min): killed all gonococcal cells for all isolates; MBC [3]: 750 µM (≈ 150 µg/mL); Reduction in bacterial cell number in artificial tear fluid containing calcium chloride [4]: no reduction; Antigonococcal properties in tear fluid made without calcium chloride [4]: completely restored; Effect of calcium in artificial tear fluid on antimicrobial effect [4]: inactivated; H50 concentration relative to MBC (bovine RBCs): greater than their MBCs
O=C(O)CCCCCCCC(=O)O [Azelaic acid]	No			
